# Earlier results in PMC3280530, “Marine Compounds Selectively Induce Apoptosis in Female Reproductive Cancer Cells but Not in Primary-Derived Human Reproductive Granulosa Cells” (Marine Drugs, 2012).
# Test system: caspase-3 and -7 in the Jurkat cell line
# Design: method as in PMID 17088067
# Details: after 5 h; cited from earlier work
compound,measurement,value
"O=C1Nc2c(cc(Br)c(Br)c2Br)C1=O [5,6,7-tribromoisatin]",concentration activating caspase-3 and -7,8 µM
